One block for each compound: values may come before it.
Key:
[1] = tested on: K562 cells; test: Apoptosis induction into K562 cells by combined use, flow cytometry with APO 2.7 antibody; format: cell-based; conditions: K562 cells cultured 10 days with 2 μM Telomestatin, then 72 hours with the antitumor substance
Experimental: K562 cells (available from ATCC (Rockville, Md.)) were cultured for 10 days in the presence of 2 μM Telomestatin (GM-95 substance). Subsequently, the Telomestatin-treated K562 cells were incubated for 72 hours together with Imanitib, Daunorubicin (DNR), Mitoxantrone (MIT), or Vincristine (VCR). The expression of apoptosis was measured by flow cytometric analysis using an FITC conjugate APO 2.7 monoclonal antibody (which is generated to a mitochondrial membrane protein (7A6 antigen) and is expressed in cells wherein apoptosis takes place). In the figures, the terms “control,” “TMS,” “Imanitib,” “DNR,” “MIT,” and “VCR” represent a control substance, the GM-95 substance (Telomestatin), Imanitib, Daunorubicin, Mitoxantrone, and Vincristine, respectively.

[2] = tested on: several types of cancer cells; test: Action of the GM-95 substance on several types of cancer cells; format: cell-based
Experimental: The inventors have already reported the details thereof (refer to International Publication WO00/24747, for example). The GM-95 substance is the strongest telomerase inhibitor among telomerase inhibitors including synthetic compounds that have been reported to date. The action of the GM-95 substance on several types of cancer cells was analyzed. […] In addition, the aged cells had lost their tumorigenicity.

[3] = Solubility in solvents; format: physicochemical
[4] = tested on: HT1080 cells; test: Combined use of GM-95 substance with another antitumor substance, survival rate by MTT method; format: cell-based
Experimental: Tumor cells were cultured under the conditions described below using the GM-95 substance and another antitumor substance in the same manner as in Example 3. After a certain period of time had passed, the survival rate of the tumor cells was measured.
HT1080 cells were used as tumor cells. In the following experiments, the tumor cells were cultured in a medium formed by adding 10% FBS to RPMI1640 (SIGMA, R8758) using a CO2 incubator (temperature: 37° C.; humidity: 100%; CO2 concentration: 5%).
HT1080 cells were cultured under conditions described in the following (A) to (C). After completion of the culture, the survival rate of the tumor cells was measured by the MTT method. • (A): 0.5 μM GM-95 substance and each of the aforementioned antitumor substances with a certain concentration were simultaneously added to the HT1080 cells, and the tumor cells were then cultured for 2 days. After completion of the culture, the survival rate of the tumor cells was measured. • (B): The tumor cells were previously cultured for 7 days together with 0.5 μM or 1 μM GM-95 substance. […] After completion of the culture, the survival rate of the tumor cells was measured. • (C): The tumor cells were previously cultured for 7 or 14 days together with 0.5 μM or 1 μM GM-95 substance. […] After completion of the culture, the survival rate of the tumor cells was measured. […]

[5] = tested on: MCF-7 cells; test: as above; format: cell-based; conditions: 1 μM or 2 μM GM-95 for 7 or 14 days, then 2 days with antitumor substance
Experimental: Tumor cells were cultured under the conditions described below using the GM-95 substance and another antitumor substance in the same manner as in Example 5. After a certain period of time had passed, the survival rate of the tumor cells was measured.
MCF-7 cells were used as tumor cells. In the following experiments, the tumor cells were cultured in a medium formed by adding 10% FBS to DMEM (SIGMA, D6046) using a CO2 incubator (temperature: 37° C.; humidity: 100%; CO2 concentration: 5%).
MCF-7 cells were cultured under conditions described in the following (D) and (E). After completion of the culture, the survival rate of the tumor cells was measured by the MTT method. • (D): The tumor cells were previously cultured for 7 days together with 1 μM or 2 μM GM-95 substance. Thereafter, each of the aforementioned antitumor substances with a certain concentration was added to the cells in the absence of the GM-95 substance, followed by culture for 2 days. After completion of the culture, the survival rate of the tumor cells was measured. • (E): The tumor cells were previously cultured for 14 days together with 1 μM or 2 μM GM-95 substance. […] After completion of the culture, the survival rate of the tumor cells was measured. […]

Structure (SMILES): COc1cccc2c1C(=O)c1c(O)c3c(c(O)c1C2=O)C[C@@](O)(C(C)=O)C[C@@H]3O[C@H]1C[C@H](N)[C@H](O)[C@H](C)O1 [Daunorubicin]
Effect of inducing apoptosis by combined use of Telomestatin with another antitumor substance [1]: act synergistically

Structure (SMILES): Cc1ccc(NC(=O)c2ccc(CN3CCN(C)CC3)cc2)cc1Nc1nccc(-c2cccnc2)n1 [Imanitib]
Effect of inducing apoptosis by combined use of Telomestatin with another antitumor substance [1]: act synergistically

Solubility in acetone ([3]; acetone): insoluble
Solubility in a mixture consisting of chloroform and methanol (1:1) ([3]; chloroform and methanol (1:1)): soluble
Solubility in water ([3]; water): insoluble
Structure (SMILES): Cc1oc2nc1-c1nc(co1)-c1nc(co1)-c1nc(co1)-c1nc(co1)-c1nc(co1)C1=NC(CS1)c1nc-2c(C)o1 (stereo not drawn) [GM-95]
Induction of aging of cells attended with telomere shortening [2]: induces the aging of cells
Effect of inducing apoptosis by combined use of Telomestatin with another antitumor substance [1]: act synergistically
Antitumor action by combined use of the GM-95 substance with another antitumor substance (survival rate) ([4]; HT1080, 0.5 μM or 1 μM GM-95, simultaneous or 7 or 14 days pre-treatment, then 2 days with antitumor substance): enhanced
Number of surviving cells ([4]; HT1080 cultured for 14 days in the presence of 1 μM GM-95 substance): very small
Antitumor action by combined use of the GM-95 substance with another antitumor substance (survival rate) [5]: enhanced

Structure (SMILES): CC[C@]1(O)C[C@H]2CN(CCc3c([nH]c4ccccc34)[C@@](C(=O)OC)(c3cc4c(cc3OC)N(C=O)[C@H]3[C@@](O)(C(=O)OC)[C@H](OC(C)=O)[C@]5(CC)C=CCN6CC[C@]43[C@@H]65)C2)C1 [Vincristine]
Effect of inducing apoptosis by combined use of Telomestatin with another antitumor substance [1]: act synergistically

Structure (SMILES): O=C1c2c(O)ccc(O)c2C(=O)c2c(NCCNCCO)ccc(NCCNCCO)c21 [Mitoxantrone]
Effect of inducing apoptosis by combined use of Telomestatin with another antitumor substance [1]: act synergistically

Reference: patent publication US7470714B2, “GM-95-containing antitumor effect potentiator, combined antitumor preparation and antitumor agent” (Sosei Co., Ltd., priority 2003, dated 2008)
